{"source": "ChEMBL document CHEMBL1201862", "about": "“PubChem BioAssay data set” (2004)", "key": {"[1]": {"target": "T1, Sentrin-specific protease 6 (Homo sapiens, UniProt Q9GZR1)", "T1 sequence (Q9GZR1 whole entry)": "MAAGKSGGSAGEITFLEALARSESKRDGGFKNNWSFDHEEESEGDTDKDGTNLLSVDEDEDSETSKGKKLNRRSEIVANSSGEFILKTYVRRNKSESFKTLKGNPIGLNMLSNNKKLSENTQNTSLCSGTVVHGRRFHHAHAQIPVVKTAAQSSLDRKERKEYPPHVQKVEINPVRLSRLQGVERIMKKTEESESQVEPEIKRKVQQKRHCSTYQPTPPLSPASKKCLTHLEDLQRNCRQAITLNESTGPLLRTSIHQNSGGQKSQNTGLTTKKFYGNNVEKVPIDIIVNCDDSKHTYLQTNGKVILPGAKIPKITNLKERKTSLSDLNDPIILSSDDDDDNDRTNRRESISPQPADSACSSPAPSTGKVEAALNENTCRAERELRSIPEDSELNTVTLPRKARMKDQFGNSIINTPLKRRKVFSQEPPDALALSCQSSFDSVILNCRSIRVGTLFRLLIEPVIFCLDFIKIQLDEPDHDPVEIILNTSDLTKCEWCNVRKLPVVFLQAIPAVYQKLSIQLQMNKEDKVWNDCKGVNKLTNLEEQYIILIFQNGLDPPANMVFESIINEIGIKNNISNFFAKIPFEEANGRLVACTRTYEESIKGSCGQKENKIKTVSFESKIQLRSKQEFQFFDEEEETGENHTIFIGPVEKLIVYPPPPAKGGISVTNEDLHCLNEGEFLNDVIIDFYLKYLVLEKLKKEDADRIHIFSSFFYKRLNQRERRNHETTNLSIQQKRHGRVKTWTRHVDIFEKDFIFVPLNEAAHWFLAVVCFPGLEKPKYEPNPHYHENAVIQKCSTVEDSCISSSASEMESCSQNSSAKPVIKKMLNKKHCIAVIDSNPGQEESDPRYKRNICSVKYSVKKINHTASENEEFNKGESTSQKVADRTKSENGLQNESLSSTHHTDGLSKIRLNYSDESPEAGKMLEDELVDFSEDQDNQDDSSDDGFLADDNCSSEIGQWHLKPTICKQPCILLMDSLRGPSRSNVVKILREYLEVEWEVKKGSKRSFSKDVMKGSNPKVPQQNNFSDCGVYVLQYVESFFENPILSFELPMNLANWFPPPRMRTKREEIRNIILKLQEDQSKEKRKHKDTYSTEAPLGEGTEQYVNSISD", "assay": "inhibition of human SENP6 catalytic domain – biochemical, luminescence, set 2, SAR follow-up (AID 588598)", "assay_type": "functional"}, "[2]": {"target": "T2, Sentrin-specific protease 8 (Homo sapiens, UniProt Q96LD8)", "T2 sequence (Q96LD8 whole entry)": "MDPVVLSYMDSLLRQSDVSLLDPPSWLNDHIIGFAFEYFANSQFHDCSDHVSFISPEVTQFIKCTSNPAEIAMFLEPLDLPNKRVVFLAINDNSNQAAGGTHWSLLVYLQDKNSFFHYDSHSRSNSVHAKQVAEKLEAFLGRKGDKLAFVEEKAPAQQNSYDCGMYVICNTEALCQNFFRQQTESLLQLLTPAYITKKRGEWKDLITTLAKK", "assay": "inhibition of sentrin protease 8 – biochemical, luminescence, set 2, SAR follow-up (AID 588601)", "assay_type": "functional"}, "[3]": {"target": "T3, Sentrin-specific protease 7 (Homo sapiens, UniProt Q9BQF6)", "T3 sequence (Q9BQF6 whole entry)": "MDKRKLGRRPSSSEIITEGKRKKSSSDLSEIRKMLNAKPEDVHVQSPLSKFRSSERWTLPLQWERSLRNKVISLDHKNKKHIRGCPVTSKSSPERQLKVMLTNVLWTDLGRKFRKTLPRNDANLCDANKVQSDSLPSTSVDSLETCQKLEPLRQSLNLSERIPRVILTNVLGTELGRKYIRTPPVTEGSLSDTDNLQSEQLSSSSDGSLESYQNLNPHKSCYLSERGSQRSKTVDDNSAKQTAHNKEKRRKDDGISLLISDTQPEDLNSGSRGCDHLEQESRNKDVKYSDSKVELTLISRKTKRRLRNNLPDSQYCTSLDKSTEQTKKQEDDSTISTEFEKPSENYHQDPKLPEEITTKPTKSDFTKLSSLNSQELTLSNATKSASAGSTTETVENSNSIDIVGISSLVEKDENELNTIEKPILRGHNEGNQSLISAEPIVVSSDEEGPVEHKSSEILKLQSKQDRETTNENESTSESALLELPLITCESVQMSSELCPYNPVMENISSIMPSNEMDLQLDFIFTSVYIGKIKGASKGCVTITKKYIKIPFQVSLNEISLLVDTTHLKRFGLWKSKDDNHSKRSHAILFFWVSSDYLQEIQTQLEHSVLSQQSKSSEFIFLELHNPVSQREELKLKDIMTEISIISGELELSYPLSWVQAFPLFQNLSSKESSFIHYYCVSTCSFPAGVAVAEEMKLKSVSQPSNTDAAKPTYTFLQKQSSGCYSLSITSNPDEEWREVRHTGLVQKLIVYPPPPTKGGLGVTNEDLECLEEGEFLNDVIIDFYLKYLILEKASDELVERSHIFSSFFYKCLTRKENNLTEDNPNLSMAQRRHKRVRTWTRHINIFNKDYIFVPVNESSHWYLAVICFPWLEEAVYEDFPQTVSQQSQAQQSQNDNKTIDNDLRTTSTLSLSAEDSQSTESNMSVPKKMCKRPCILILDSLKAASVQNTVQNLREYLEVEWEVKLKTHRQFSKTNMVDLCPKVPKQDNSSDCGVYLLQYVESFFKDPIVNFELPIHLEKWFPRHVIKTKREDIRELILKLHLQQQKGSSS", "assay": "inhibition of human SENP7 cleavage activity – biochemical, luminescence, set 2, SAR follow-up (AID 588600)", "assay_type": "functional"}, "Caspase-3 [4]": {"target": "T4, Caspase-3 (Homo sapiens, UniProt P42574)", "T4 sequence (P42574 whole entry)": "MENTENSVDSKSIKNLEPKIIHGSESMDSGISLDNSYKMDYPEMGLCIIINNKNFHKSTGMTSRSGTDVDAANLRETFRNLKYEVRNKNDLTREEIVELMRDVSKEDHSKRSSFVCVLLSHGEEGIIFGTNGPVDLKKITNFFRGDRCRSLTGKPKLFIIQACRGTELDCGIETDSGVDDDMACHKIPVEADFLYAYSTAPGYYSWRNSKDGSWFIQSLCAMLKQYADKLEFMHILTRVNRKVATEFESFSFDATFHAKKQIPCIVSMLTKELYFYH", "assay": "inhibition of recombinant caspase-3 activity – biochemical, luminescence, set 2, selectivity assay for SENP protease inhibitor project, SAR follow-up (AID 588599)", "assay_type": "functional"}, "Caspase-3 [5]": {"target": "T4, Caspase-3", "assay": "SAR Analysis of small molecule inhibitors of Sentrin-specific proteases (SENPs) using a Caspase-3 Selectivity assay. [Related pubchem assays (depositor defined):AID2540, AID2599, AID434973, AID489001]", "assay_type": "functional"}, "[6]": {"target": "T2, Sentrin-specific protease 8", "assay": "inhibition of human SENP8 cleavage activity – biochemical, luminescence, SAR follow-up (AID 504501)", "assay_type": "functional"}, "[7]": {"target": "T3, Sentrin-specific protease 7", "assay": "inhibition of human SENP7 cleavage activity – biochemical, luminescence, SAR follow-up (AID 504497)", "assay_type": "functional"}, "[8]": {"target": "T1, Sentrin-specific protease 6", "assay": "SAR Analysis of small molecule inhibitors of Sentrin-specific protease 6 (SENP6) using a Luminescent assay. [Related pubchem assays (depositor defined):AID2582, AID2599]", "assay_type": "functional"}, "[9]": {"assay": "Trypanosoma cruzi growth suppression in host cells – NIH3T3 host cells, beta-gal luminescence, confirmation (AID 2044);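 also: intracellular parasites grown in NIH/3T3 mouse fibroblasts as host cells; luminescent beta-galactosidase reporter signal from transgenic T. cruzi replicating inside host cells; inhibitors lower the luminescence signal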", "assay_type": "functional, cell-based"}, "[10]": {"assay": "NIH3T3 cell viability loss – ATP luminescence, mouse fibroblasts, counter-screen, dose response (AID 2010);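 also: cells exposed to compound for about 90 hours before reading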", "assay_type": "functional, cell-based"}, "[11]": {"target": "T5, Microphthalmia-associated transcription factor (Homo sapiens, UniProt O75030)", "T5 sequence (O75030 whole entry)": "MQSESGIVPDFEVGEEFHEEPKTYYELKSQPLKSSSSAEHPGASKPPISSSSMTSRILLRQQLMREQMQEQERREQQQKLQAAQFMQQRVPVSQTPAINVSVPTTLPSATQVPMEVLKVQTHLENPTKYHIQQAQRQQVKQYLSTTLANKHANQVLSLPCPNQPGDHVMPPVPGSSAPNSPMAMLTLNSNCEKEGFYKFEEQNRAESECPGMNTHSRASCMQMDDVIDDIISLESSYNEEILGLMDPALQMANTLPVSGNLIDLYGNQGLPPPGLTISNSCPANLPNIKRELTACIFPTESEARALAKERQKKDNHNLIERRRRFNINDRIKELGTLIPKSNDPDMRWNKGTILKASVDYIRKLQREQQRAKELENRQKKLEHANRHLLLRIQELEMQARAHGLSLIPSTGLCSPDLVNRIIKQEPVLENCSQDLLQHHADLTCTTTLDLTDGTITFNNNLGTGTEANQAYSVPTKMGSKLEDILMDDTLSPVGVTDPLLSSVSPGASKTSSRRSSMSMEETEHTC", "assay": "reducers of TRPM1 reporter luminescence, concentration series – cell-based, SK-MEL-5, cherry-picked, set 3, MITF inhibitor project, dose response (AID 493073);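 also: SK-MEL-5 melanoma cells with luciferase driven by the MITF target TRPM1 promoter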", "assay_type": "functional"}, "[12]": {"target": "V-type proton ATPase subunit c' (Saccharomyces cerevisiae S288c, UniProt P32842)", "sequence (P32842 whole entry)": "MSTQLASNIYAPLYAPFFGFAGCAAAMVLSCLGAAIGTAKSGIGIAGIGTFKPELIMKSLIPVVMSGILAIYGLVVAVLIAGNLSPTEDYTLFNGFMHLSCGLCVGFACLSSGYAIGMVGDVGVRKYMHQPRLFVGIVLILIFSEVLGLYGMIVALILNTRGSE", "assay": "Dose Response with BCECF Assay for V-ATPase inhibitors that increase vacuolar pH, Powder Set 1.", "assay_type": "functional", "conditions": "read-out: EC50_MICROM"}}, "note": "Calls of active or inactive are those of the source. Rule as the data show it, for most assays here: actives have a measured IC50 and inactives only a lower limit.", "data": [{"smiles": "O=C(Cc1ccc(C(F)(F)F)cc1[N+](=O)[O-])N/N=C/c1c[nH]c2ccccc12", "values": [{"measurement": "IC50", "setting": "[1]", "result": "> 99 µM (inactive)"}, {"measurement": "IC50", "setting": "[2]", "result": "> 99 µM (inactive)"}, {"measurement": "IC50", "setting": "[3]", "result": "> 99 µM (inactive)"}, {"measurement": "IC50", "setting": "Caspase-3 [4]", "result": "> 99 µM (inactive)"}]}, {"smiles": "CC(N/C=C1/C(=O)N(c2nc3ccccc3s2)N=C1C(F)(F)F)C12CC3CC(CC(C3)C1)C2", "note": "(configuration not stated)", "values": [{"measurement": "IC50", "setting": "Caspase-3 [5]", "result": "40.7 µM (active)"}, {"measurement": "IC50", "setting": "[6]", "result": "86.9 µM (active)"}, {"measurement": "IC50", "setting": "[7]", "result": "87.3 µM (active)"}, {"measurement": "IC50", "setting": "[8]", "result": "77.3 µM (active)"}]}, {"smiles": "COc1ccc2nc(N3CCN(C(=O)c4ccc([N+](=O)[O-])o4)CC3)sc2c1", "values": [{"measurement": "EC50", "setting": "[9]", "result": "0.434 µM (active)"}, {"measurement": "EC50", "setting": "[10]", "result": "39.5 µM (active)"}, {"measurement": "AC50", "setting": "[11]", "result": "5.81 µM (active)"}, {"measurement": "EC50", "setting": "[12]", "result": "0.728 µM (active)"}]}]}
